16 compounds from patent publication US12310975B2, “Modulators of BCL6 proteolysis and associated methods of use” (Arvinas Operations, Inc., priority 2019, dated 2025) can be followed below.

Some results are limits rather than exact numbers.

Assay [1] addresses T1, BCL6 (Homo sapiens (Human), UniProt P41182). The experiment in a line: BCL6 TR-FRET assay (BCL6-Avitag-Biotin / BCoR-Cy5 peptide). Type of assay: binding. In short, it runs like this: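 TR-FRET displacement assay: biotinylated His-SUMO-BCL6-Avitag (2 nM) pre-incubated 30 min at room temperature with compound (12-point 3-fold titration), then BCoR-Cy5 peptide (100 nM) and Eu-streptavidin (2 nM) added. Buffer: 50 mM HEPES pH 7.5, 125 mM NaCl, 0.01% Triton X, glutathione or DTT, 0.03% BSA. Read after 2 h.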
On the technique in general: Time-resolved FRET reads energy transfer from a long-lived donor to a nearby acceptor.

In assay [2] the target is T1, BCL6. The experiment in a line: Immunofluorescence high content imaging of BCL6 degradation in T47D cells. Type of assay: cell-based. To be noted: for Dmax: T47D. In short, it runs like this:
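Seed T47D in RPMI1640-10% FBS to reach ~70-90% confluence at endpoint; add degrader next day (11-point 3-fold series, top 0.1 or 1 μM final) for 3 days. Then fix, permeabilize, stain BCL6 with nuclear Hoechst, and image.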

With `CNC(=O)[C@@H](C)Oc1cc2cc(Nc3nc(N4CCC(CN5CCN(c6ccc7c(c6)C(=O)N([C@@H]6CCC(=O)NC6=O)C7=O)CC5)CC4)ncc3Cl)ccc2n(C)c1=O` [compound 212, (R)-2-((6-((5-chloro-2-(4-((4-(2-((R)-2,6-dioxopiperidin-3-yl)-1,3-dioxoisoindolin-5-yl)piperazin-1-yl)methyl)piperidin-1-yl)pyrimidin-4-yl)amino)-1-methyl-2-oxo-1,2-dihydroquinolin-3-yl)oxy)-N-methylpropanamide], the EC50 at BCL6 [1] lay within 10 to 50 nM. For the same compound, the 50% inhibitory concentration (IC50) on BCL6 [2] is at least 100 nM.
The matching figures for `CNC(=O)[C@H](C)Oc1cc2cc(Nc3nc(N4CCC(CN5CCN(c6ccc7c(c6)C(=O)N([C@@H]6CCC(=O)NC6=O)C7=O)CC5)CC4)ncc3Cl)ccc2n(C)c1=O` [compound 213, (S)-2-((6-((5-chloro-2-(4-((4-(2-((R)-2,6-dioxopiperidin-3-yl)-1,3-dioxoisoindolin-5-yl)piperazin-1-yl)methyl)piperidin-1-yl)pyrimidin-4-yl)amino)-1-methyl-2-oxo-1,2-dihydroquinolin-3-yl)oxy)-N-methylpropanamide]: over 100 nM and at least 100 nM.
At BCL6 [1], `CNC(=O)c1cc2cc(Nc3nc(N4CCC(CN5CCN(c6ccc7c(c6)C(=O)N(C6CCC(=O)NC6=O)C7=O)CC5)CC4)ncc3Cl)ccc2n(C)c1=O` (stereo not shown) [compound 214, 6-((5-chloro-2-(4-((4-(2-(2,6-dioxopiperidin-3-yl)-1,3-dioxoisoindolin-5-yl)piperazin-1-yl)methyl)piperidin-1-yl)pyrimidin-4-yl)amino)-N,1-dimethyl-2-oxo-1,2-dihydroquinoline-3-carboxamide] returned an EC50 of over 100 nM. The half-maximal inhibitory concentration (IC50) against BCL6 [2] was at least 100 nM.
Consider `CNC(=O)COc1cc2cc(Nc3nc(N4CCCN(CC5CCN(c6ccc7c(c6)C(=O)N(C6CCC(=O)NC6=O)C7=O)CC5)CC4)ncc3Cl)ccc2n(C)c1=O` (stereo not shown) [compound 215, 2-((6-((5-chloro-2-(4-((1-(2-(2,6-dioxopiperidin-3-yl)-1,3-dioxoisoindolin-5-yl)piperidin-4-yl)methyl)-1,4-diazepan-1-yl)pyrimidin-4-yl)amino)-1-methyl-2-oxo-1,2-dihydroquinolin-3-yl)oxy)-N-methylacetamide], for which, on BCL6 [1], the concentration for a half-maximal effect (EC50) was in the range of 50 to 100 nM. At BCL6 [2], the 50% inhibitory concentration (IC50) was in the range of 10 to 50 nM and the maximal degradation (Dmax) is under 50%.
The compound `CC(=O)[C@@H](C)Oc1cc2cc(Nc3nc(N4CCC(CN5CCN(c6ccc7c(c6)C(=O)N([C@H]6CCC(=O)NC6=O)C7=O)CC5)CC4)ncc3Cl)ccc2n(C)c1=O` [compound 216, 5-(4-((1-(5-chloro-4-((1-methyl-2-oxo-3-(((R)-3-oxobutan-2-yl)oxy)-1,2-dihydroquinolin-6-yl)amino)pyrimidin-2-yl)piperidin-4-yl)methyl)piperazin-1-yl)-2-((S)-2,6-dioxopiperidin-3-yl)isoindoline-1,3-dione] showed a concentration for a half-maximal effect (EC50) on BCL6 [1] of over 100 nM. Further, on BCL6 [2], the IC50 lay within 10 to 50 nM and the Dmax is under 50%.
The matching figures for `CC(=O)[C@H](C)Oc1cc2cc(Nc3nc(N4CCC(CN5CCN(c6ccc7c(c6)C(=O)N([C@H]6CCC(=O)NC6=O)C7=O)CC5)CC4)ncc3Cl)ccc2n(C)c1=O` [compound 217, 5-(4-((1-(5-chloro-4-((1-methyl-2-oxo-3-(((S)-3-oxobutan-2-yl)oxy)-1,2-dihydroquinolin-6-yl)amino)pyrimidin-2-yl)piperidin-4-yl)methyl)piperazin-1-yl)-2-((S)-2,6-dioxopiperidin-3-yl)isoindoline-1,3-dione]: over 100 nM, at least 100 nM and under 50%.
The matching figures for `CC(=O)[C@@H](C)Oc1cc2cc(Nc3nc(N4CCC(CN5CCN(c6ccc7c(c6)C(=O)N([C@@H]6CCC(=O)NC6=O)C7=O)CC5)CC4)ncc3Cl)ccc2n(C)c1=O` [compound 218, 5-(4-((1-(5-chloro-4-((1-methyl-2-oxo-3-(((R)-3-oxobutan-2-yl)oxy)-1,2-dihydroquinolin-6-yl)amino)pyrimidin-2-yl)piperidin-4-yl)methyl)piperazin-1-yl)-2-((R)-2,6-dioxopiperidin-3-yl)isoindoline-1,3-dione]: over 100 nM, at least 100 nM and under 50%.
As for `CC(=O)[C@H](C)Oc1cc2cc(Nc3nc(N4CCC(CN5CCN(c6ccc7c(c6)C(=O)N([C@@H]6CCC(=O)NC6=O)C7=O)CC5)CC4)ncc3Cl)ccc2n(C)c1=O` [compound 219, 5-(4-((1-(5-chloro-4-((1-methyl-2-oxo-3-(((S)-3-oxobutan-2-yl)oxy)-1,2-dihydroquinolin-6-yl)amino)pyrimidin-2-yl)piperidin-4-yl)methyl)piperazin-1-yl)-2-((R)-2,6-dioxopiperidin-3-yl)isoindoline-1,3-dione], the concentration for a half-maximal effect (EC50) at BCL6 [1] is over 100 nM. Moreover, on BCL6 [2], the concentration for half-maximal inhibition (IC50) lay within 50 to 100 nM and the Dmax is under 50%.
Regarding `CNC(=O)COc1cc2cc(Nc3nc(N4CCN(C5CCN(c6cccc7c6C(=O)N(C6CCC(=O)NC6=O)C7=O)CC5)CC4)ncc3Cl)ccc2n(C)c1=O` (stereo not shown) [compound 220, 2-((6-((5-chloro-2-(4-(1-(2-(2,6-dioxopiperidin-3-yl)-1,3-dioxoisoindolin-4-yl)piperidin-4-yl)piperazin-1-yl)pyrimidin-4-yl)amino)-1-methyl-2-oxo-1,2-dihydroquinolin-3-yl)oxy)-N-methylacetamide], the EC50 on BCL6 [1] was over 100 nM. On BCL6 [2], this compound gave an IC50 of under 10 nM and a Dmax of 50 to 70%.
The matching figures for `CNC(=O)COc1cc2cc(Nc3nc(N4CCC(OC5CCN(c6ccc7c(c6)C(=O)N(C6CCC(=O)NC6=O)C7=O)CC5)CC4)ncc3Cl)ccc2n(C)c1=O` (stereo not shown) [compound 221, 2-((6-((5-chloro-2-(4-((1-(2-(2,6-dioxopiperidin-3-yl)-1,3-dioxoisoindolin-5-yl)piperidin-4-yl)oxy)piperidin-1-yl)pyrimidin-4-yl)amino)-1-methyl-2-oxo-1,2-dihydroquinolin-3-yl)oxy)-N-methylacetamide]: over 100 nM, under 10 nM and 50 to 70%.
The matching figures for `CNC(=O)COc1cc2cc(Nc3nc(N4CCO[C@@H](COc5ccc6c(c5)C(=O)N(C5CCC(=O)NC5=O)C6=O)C4)ncc3Cl)ccc2n(C)c1=O` (stereo partly drawn) [compound 222, 2-((6-((5-chloro-2-((2R)-2-(((2-(2,6-dioxopiperidin-3-yl)-1,3-dioxoisoindolin-5-yl)oxy)methyl)morpholino)pyrimidin-4-yl)amino)-1-methyl-2-oxo-1,2-dihydroquinolin-3-yl)oxy)-N-methylacetamide]: over 100 nM, 50 to 100 nM and under 50%.
`Cn1c(=O)c(-n2ccnc2)cc2cc(Nc3nc(N4CCC(CN5CCN(c6ccc7c(c6)C(=O)N(C6CCC(=O)NC6=O)C7=O)CC5)CC4)ncc3Cl)ccc21` (stereo not shown) [compound 224, 5-(4-((1-(4-((3-(1H-imidazol-1-yl)-1-methyl-2-oxo-1,2-dihydroquinolin-6-yl)amino)-5-chloropyrimidin-2-yl)piperidin-4-yl)methyl)piperazin-1-yl)-2-(2,6-dioxopiperidin-3-yl)isoindoline-1,3-dione] registered an EC50 on BCL6 [1] of over 100 nM. For the same compound, at BCL6 [2], the IC50 was at least 100 nM.
Take `Cn1c(=O)c(Cn2cccn2)cc2cc(Nc3nc(N4CCC(CN5CCN(c6ccc7c(c6)C(=O)N(C6CCC(=O)NC6=O)C7=O)CC5)CC4)ncc3Cl)ccc21` (stereo not shown) [compound 225, 5-(4-((1-(4-((3-((1H-pyrazol-1-yl)methyl)-1-methyl-2-oxo-1,2-dihydroquinolin-6-yl)amino)-5-chloropyrimidin-2-yl)piperidin-4-yl)methyl)piperazin-1-yl)-2-(2,6-dioxopiperidin-3-yl)isoindoline-1,3-dione]: the EC50 at BCL6 [1] was over 100 nM. The IC50 at BCL6 [2] was at least 100 nM.
In the case of `CNC(=O)COc1cc2cc(Nc3nc(N4CCOC(COc5cccc6c5C(=O)N(C5CCC(=O)NC5=O)C6=O)C4)ncc3Cl)ccc2n(C)c1=O` (stereo not shown) [compound 226, 2-((6-((5-chloro-2-(2-(((2-(2,6-dioxopiperidin-3-yl)-1,3-dioxoisoindolin-4-yl)oxy)methyl)morpholino)pyrimidin-4-yl)amino)-1-methyl-2-oxo-1,2-dihydroquinolin-3-yl)oxy)-N-methylacetamide], the concentration for a half-maximal effect (EC50) on BCL6 [1] is 10 to 50 nM. Moreover, at BCL6 [2], the IC50 is 50 to 100 nM and the Dmax was under 50%.
With `CNC(=O)COc1cc2cc(Nc3nc(N4CCC(OC5CN(c6ccc7c(c6)C(=O)N(C6CCC(=O)NC6=O)C7=O)C5)CC4)ncc3Cl)ccc2n(C)c1=O` (stereo not shown) [compound 227, 2-((6-((5-chloro-2-(4-((1-(2-(2,6-dioxopiperidin-3-yl)-1,3-dioxoisoindolin-5-yl)azetidin-3-yl)oxy)piperidin-1-yl)pyrimidin-4-yl)amino)-1-methyl-2-oxo-1,2-dihydroquinolin-3-yl)oxy)-N-methylacetamide], the EC50 at BCL6 [1] is over 100 nM. Further, on BCL6 [2], the IC50 was under 10 nM and the maximal degradation (Dmax) is under 50%.
For `CNC(=O)COc1cc2cc(Nc3nc(N4CCO[C@H](COc5ccc6c(c5)C(=O)N(C5CCC(=O)NC5=O)C6=O)C4)ncc3Cl)ccc2n(C)c1=O` (stereo partly drawn) [compound 228, 2-((6-((5-chloro-2-((2S)-2-(((2-(2,6-dioxopiperidin-3-yl)-1,3-dioxoisoindolin-5-yl)oxy)methyl)morpholino)pyrimidin-4-yl)amino)-1-methyl-2-oxo-1,2-dihydroquinolin-3-yl)oxy)-N-methylacetamide], in that order: over 100 nM, at least 100 nM and 50 to 70%.

The term EC50 denotes the concentration that produces a half-maximal response. By IC50 is commonly meant the midpoint of a concentration-inhibition curve. Higher therefore signals weaker potency. What is called Dmax is the largest share of the target that was removed. Higher therefore signals a fuller loss of target.
